In patent US20080176932A1, “Pharmaceutical Compositions Containing Baicalein And Baicalin With Synergistic Effect In Tumor Treatment” (priority 2005, published 2008):
Where two headings read alike, the source gives them in different places.

Experiments:
[1] = tested on: Human hung cancer cell line A549; test: MTT growth inhibition, baicalein and baicalin single or combination; type: cell-based
Description: Human hung cancer cell line A549—Table 3;

[2] = tested on: human liver cancer cell line HepG2; test: as above; type: cell-based
Description: The results of experiments with human liver cancer cell line HepG2 are illustrated in Table 1;

[3] = tested on: Human gastric cancer cell line MKN28; test: as above; type: cell-based
Description: Human gastric cancer cell line MKN28—Table 4;

[4] = tested on: Human colon cancer cell line HCT116; test: as above; type: cell-based
Description: Human colon cancer cell line HCT116—Table 2;

[5] = tested on: Human breast cancer cell line MCF-7
[6] = tested on: Human prostate cancer cell line PC3
[7] = tested on: Human leukemia cell line HL60; test: MTT growth inhibition, baicalein and baicalin single or combination; type: cell-based
Description: Human leukemia cell line HL60—Table 8.

[8] = tested on: Murine melanoma cell line B 16; test: Solid tumor transplant model, baicalein and baicalin; type: in vivo; conditions: B16 mice, day 1-10; for Final Tumor WT. (g) Mean ± SD / Tumor Growth Inhibition %: day 15
Description: C57BL/6 female mice (weight approximately 20 g) were used in this study. Murine melanoma cell line B 16 cells, 2×10^6 tumor cells were implanted s.c. into the armpit of each mice after two passenges in vitro cultured. On the next day after implantation, mice were randomly grouped at 10 per group and received 0.1 ml/10 g weight of the drugs. […] The number of mice of each group was 10. Mice were weighed before and post the treatment. Animals were killed on day 15, and the tumors were removed and weighted.

[9] = tested on: Human esophagus cancer cell line TE2
[10] = tested on: L1210 cells; type: in vivo; conditions: day 1-10; for ILS(%) increase of life span: L1210 mice
Description: L1210 cells on the growth phase were injected at 1×10^5 cells via I.P. into BDF1 female mice (weight approximately 20 g). The next day of implantation, mice were grouped, and received an injection of 0.1 ml/10 g weight of the drug. […] The number of mice of each group was 10. Mice were weighed before and after the treatment. Survival time of each mouse was recorded. The results of changes in increasing of life span of mice were used in assessment of response. The increase of life span was determined as; increase of life span rate=(median survival time of treated animals/median survival time of control animals−1)×100%, the data were analyzed by t-test.

O=C(O)[C@H]1O[C@@H](Oc2cc3oc(-c4ccccc4)cc(=O)c3c(O)c2O)[C@H](O)[C@@H](O)[C@@H]1O [BG, baicalin]
Inhibition of cell growth (%) ([1]; single dose 2.5 μm): 9.8 ± 2% | Inhibition of cell growth (%) ([1]; single dose 5 μm): 17 ± 3% | Inhibition of cell growth (%) ([1]; single dose 10 μm): 30.58 ± 3.2% | Inhibition of cell growth (%) ([1]; single dose 20 μm): 53.58 ± 4% | Inhibition of cell growth (%) ([1]; single dose 40 μm): 92 ± 3% | Inhibition of cell growth (%) ([2]; single dose 2.5 μm): 16.63 ± 2% | Inhibition of cell growth (%) ([2]; single dose 5 μm): 16.8 ± 2% | Inhibition of cell growth (%) ([2]; single dose 10 μm): 34.93 ± 3.8% | Inhibition of cell growth (%) ([2]; single dose 20 μm): 50 ± 2.9% | Inhibition of cell growth (%) ([2]; single dose 40 μm): 86.69 ± 3% | Inhibition of cell growth (%) ([3]; single dose 2.5 μm): 5.2 ± 2% | Inhibition of cell growth (%) ([3]; single dose 5 μm): 12 ± 3% | Inhibition of cell growth (%) ([3]; single dose 10 μm): 30.2 ± 2.9% | Inhibition of cell growth (%) ([3]; single dose 20 μm): 62 ± 3.2% | Inhibition of cell growth (%) ([3]; single dose 40 μm): 85.22 ± 2% | Inhibition of cell growth (%) ([4]; single dose 2.5 μm): 17 ± 2% | Inhibition of cell growth (%) ([4]; single dose 5 μm): 20 ± 3.2% | Inhibition of cell growth (%) ([4]; single dose 10 μm): 27 ± 3% | Inhibition of cell growth (%) ([4]; single dose 20 μm): 33.75 ± 3% | Inhibition of cell growth (%) ([4]; single dose 40 μm): 90 ± 2% | Inhibition of cell growth (%) ([5]; single dose 2.5 μm): 0.5 ± 2.7% | Inhibition of cell growth (%) ([5]; single dose 5 μm): 10.2 ± 1% | Inhibition of cell growth (%) ([5]; single dose 10 μm): 48.02 ± 2% | Inhibition of cell growth (%) ([5]; single dose 20 μm): 60.35 ± 3% | Inhibition of cell growth (%) ([6]; single dose 2.5 μm): 1 ± 3% | Inhibition of cell growth (%) ([6]; single dose 5 μm): 17.9 ± 5% | Inhibition of cell growth (%) ([6]; single dose 10 μm): 47 ± 8% | Inhibition of cell growth (%) ([6]; single dose 20 μm): 62 ± 7% | Inhibition of cell growth (%) ([6]; single dose 40 μm): 88 ± 7% | Inhibition of cell growth (%) ([7]; single dose 2.5 μm): 5 ± 2% | Inhibition of cell growth (%) ([7]; single dose 5 μm): 8.6 ± 3% | Inhibition of cell growth (%) ([7]; single dose 10 μm): 21 ± 4% | Inhibition of cell growth (%) ([7]; single dose 20 μm): 45.1 ± 2.9% | Inhibition of cell growth (%) ([7]; single dose 40 μm): 82.7 ± 2.3% | Final Tumor WT. (g) Mean ± SD ([8]; BG 25 mg/kg i.p.): 1.81 ± 0.1 g | Tumor Growth Inhibition % ([8]; BG 25 mg/kg i.p.): 16.97% | Final Tumor WT. (g) Mean ± SD ([8]; BG 50 mg/kg i.p.): 1.77 ± 0.117 g | Tumor Growth Inhibition % ([8]; BG 50 mg/kg i.p.): 18.8% | Final Tumor WT. (g) Mean ± SD ([8]; BG 100 mg/kg i.p.): 1.51 ± 0.11 g | Tumor Growth Inhibition % ([8]; BG 100 mg/kg i.p.): 30.7% | Final Tumor WT. (g) Mean ± SD ([8]; BG 200 mg/kg i.p.): 1.28 ± 0.07 g | Tumor Growth Inhibition % ([8]; BG 200 mg/kg i.p.): 41.28% | Weight Change % ([8]; BG 25 mg/kg i.p.): <5% | Weight Change % ([8]; BG 50 mg/kg i.p.): <5% | Weight Change % ([8]; BG 100 mg/kg i.p.): <5% | Weight Change % ([8]; BG 200 mg/kg i.p.): <5% | Inhibition of cell growth (%) ([9]; single dose 2.5 μm): 6.2 ± 1.8% | Inhibition of cell growth (%) ([9]; single dose 10 μm): 28.2 ± 2.5% | Inhibition of cell growth (%) ([9]; single dose 20 μm): 49.8 ± 1.78% | Inhibition of cell growth (%) ([9]; single dose 40 μm): 72.7 ± 2.1% | Number of mice Surviving through 15 days/total number ([10]; BG 25 mg/kg i.p.): 10/10 | Number of mice Surviving through 15 days/total number ([10]; BG 50 mg/kg i.p.): 10/10 | Number of mice Surviving through 15 days/total number ([10]; BG 100 mg/kg i.p.): 10/10 | Number of mice Surviving through 15 days/total number ([10]; BG 200 mg/kg i.p.): 10/10 | ILS(%) increase of life span ([10]; BG 25 mg/kg i.p.): 17.3% | ILS(%) increase of life span ([10]; BG 50 mg/kg i.p.): 27.55% | ILS(%) increase of life span ([10]; BG 100 mg/kg i.p.): 38.27% | ILS(%) increase of life span ([10]; BG 200 mg/kg i.p.): 50%
